Measurements published in patent US20230085307A1, “PYRIDAZINONE COMPOUND AND HERBICIDE” (NISSAN CHEMICAL CORPORATION, priority 2019, published 2023).

Columns and labels:
[1] = system: lambsquarters; assay: Test Example 4: herbicidal effect by soil treatment (Table 19, symbol O); type: in vivo, lambsquarters (Chenopodium album); conditions: amount of applied herbicide 320 g/ha
Method in brief: (§1)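 Scoring uses the grading scale of an earlier test, three weeks post-application. Treatment consists of spraying a diluted emulsion formulation across the surface of sterilized diluvial soil in which seeds are buried near 1.5 cm deep; boxes are kept in a greenhouse between 25° C. and 30° C.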

[2] = system: persian speedwell; assay: Test Example 4: herbicidal effect by soil treatment (Table 19, symbol R); type: in vivo, Persian speedwell (Veronica persica); conditions: amount of applied herbicide 320 g/ha
Method in brief: as §1

[3] = system: oval-leafed pondweed; assay: Test Example 1: herbicidal activity, application before weed generation under submerged conditions (Table 16, symbol C); type: in vivo, oval-leafed pondweed (Monochoria vaginalis); conditions: amount of applied herbicide 320 g/ha
Method in brief: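 Alluvial soil was flooded to 4 cm depth, weed seeds were sown mixed and 2.5-leaf rice seedlings were transplanted. On sowing day, the compound's emulsion, diluted in water to a set dose, was applied to the water surface. Plants grew at 25–30 °C and were scored 0–5 after three weeks.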

[4] = system: velvetleaf; assay: Test Example 5: herbicidal effect by foliage application, plastic box (Table 20, symbol M); type: in vivo, velvetleaf (Abutilon theophrasti); conditions: foliage application, 320 g/ha, three weeks after application
Method in brief: (§2)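 Post-emergence foliar test in sterilized diluvial soil. Compound applied as water-diluted emulsion at a predetermined rate to 14-day-old plants; evaluation at three weeks.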

[5] = system: late watergrass; assay: Test Example 2: herbicidal activity, application during weed generation under submerged conditions (Table 17, symbol A); type: in vivo, late watergrass (Echinochloa oryzicola); conditions: AAH 320 g/ha; application during weed generation, submerged conditions
Method in brief: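 Mixed weed seedlings in alluvial soil under a 4 cm water layer, greenhouse-grown at 25–30° C. Compound given as a diluted emulsion into the floodwater at the 1–2 leaf stage; response graded after three weeks.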

[6] = system: southern crabgrass; assay: Test Example 5: herbicidal effect by foliage application, plastic box (Table 20, symbol F); type: in vivo, southern crabgrass (Digitaria ciliaris); conditions: foliage application, 320 g/ha, three weeks after application
Method in brief: as §2

[7] = system: rice flat sedge; assay: Test Example 3: herbicidal effect by foliage application, Wagner pot (Table 18, symbol E); type: in vivo, rice flat sedge (Cyperus iria); conditions: amount of applied herbicide 320 g/ha
Method in brief: (§3)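 Plants were sown in alluvial soil held under 0.1–0.5 cm standing water and grown 14 days in a greenhouse at 25–30 °C. An emulsifiable formulation, water-diluted to the set dose, was then sprayed onto the foliage, and effects were scored three weeks later using previously defined criteria.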

[8] = system: lambsquarters; assay: Test Example 5: herbicidal effect by foliage application, plastic box (Table 20, symbol O); type: in vivo, lambsquarters (Chenopodium album); conditions: foliage application, 320 g/ha, three weeks after application
Method in brief: as §2

[9] = system: velvetleaf; assay: Test Example 4: herbicidal effect by soil treatment (Table 19, symbol M); type: in vivo, velvetleaf (Abutilon theophrasti); conditions: amount of applied herbicide 320 g/ha
Method in brief: as §1

[10] = system: barnyard grass; assay: Test Example 3: herbicidal effect by foliage application, Wagner pot (Table 18, symbol H); type: in vivo, barnyard grass (Echinochloa crus-galli); conditions: amount of applied herbicide 320 g/ha
Method in brief: as §3

[11] = system: windgrass; assay: Test Example 5: herbicidal effect by foliage application, plastic box (Table 20, symbol L); type: in vivo, windgrass (Apera spica-venti); conditions: foliage application, 320 g/ha, three weeks after application
Method in brief: as §2

[12] = system: green foxtail; assay: Test Example 4: herbicidal effect by soil treatment (Table 19, symbol G); type: in vivo, green foxtail (Setaria viridis); conditions: amount of applied herbicide 320 g/ha
Method in brief: as §1

[13] = system: persian speedwell; assay: Test Example 5: herbicidal effect by foliage application, plastic box (Table 20, symbol R); type: in vivo, Persian speedwell (Veronica persica); conditions: foliage application, 320 g/ha, three weeks after application
Method in brief: as §2

[14] = system: windgrass; assay: Test Example 4: herbicidal effect by soil treatment (Table 19, symbol L); type: in vivo, windgrass (Apera spica-venti); conditions: amount of applied herbicide 320 g/ha
Method in brief: as §1

[15] = system: chickweed; assay: Test Example 4: herbicidal effect by soil treatment (Table 19, symbol P); type: in vivo, common chickweed (Stellaria media); conditions: amount of applied herbicide 320 g/ha
Method in brief: as §1

[16] = system: Chinese sprangletop; assay: Test Example 3: herbicidal effect by foliage application, Wagner pot (Table 18, symbol D); type: in vivo, chinese sprangletop (Leptochloa chinensis); conditions: amount of applied herbicide 320 g/ha
Method in brief: as §3

[17] = system: Italian ryegrass; assay: Test Example 5: herbicidal effect by foliage application, plastic box (Table 20, symbol K); type: in vivo, Italian ryegrass (Lolium multiflorum); conditions: foliage application, 320 g/ha, three weeks after application
Method in brief: as §2

| Structure (SMILES) | O: lambsquarters, herbicidal effect grade [1] | R: persian speedwell, herbicidal effect grade [2] | Herbicidal effect, C: oval-leafed pondweed [3] | herbicidal effect on velvetleaf (M) [4] | herbicidal effect rating, A: late watergrass [5] | herbicidal effect on southern crabgrass (F) [6] | Herbicidal effect on E (rice flat sedge), foliage application [7] | herbicidal effect on lambsquarters (O) [8] | M: velvetleaf, herbicidal effect grade [9] | Herbicidal effect on H (barnyard grass), foliage application [10] | herbicidal effect on windgrass (L) [11] | G: green foxtail, herbicidal effect grade [12] | herbicidal effect on persian speedwell (R) [13] | L: windgrass, herbicidal effect grade [14] | P: chickweed, herbicidal effect grade [15] | Herbicidal effect on D (Chinese sprangletop), foliage application [16] | herbicidal effect on Italian ryegrass (K) [17] |
| --- | --- | --- | --- | --- | --- | --- | --- | --- | --- | --- | --- | --- | --- | --- | --- | --- | --- |
| COCCOc1ccc(-c2oc3ccccc3c2-c2c(O)c(C)nn(C)c2=O)cc1 [Compound No. 8-007, 5-hydroxy-4-(2-(4-(2-methoxyethoxy)phenyl)benzofuran-3-yl)-2,6-dimethylpyridazin-3-(2H)-one] | 4 (Herbicidal rate of 70% or more and less than 90%) | 2 (Herbicidal rate of 20% or more and less than 40%) | 4 (Herbicidal rate of 70% or more and less than 90%) | 5 (Herbicidal rate of 90% or more (almost completely withered)) | 5 (Herbicidal rate of 90% or more (almost completely withered)) | 5 (Herbicidal rate of 90% or more (almost completely withered)) | 5 (Herbicidal rate of 90% or more (almost completely withered)) | 4 (Herbicidal rate of 70% or more and less than 90%) | 3 (Herbicidal rate of 40% or more and less than 70%) | 5 (Herbicidal rate of 90% or more (almost completely withered)) | 0 (Herbicidal rate of 5% or less (almost no effect)) | 5 (Herbicidal rate of 90% or more (almost completely withered)) | 5 (Herbicidal rate of 90% or more (almost completely withered)) | 0 (Herbicidal rate of 5% or less (almost no effect)) | 0 (Herbicidal rate of 5% or less (almost no effect)) | 3 (Herbicidal rate of 40% or more and less than 70%) | 5 (Herbicidal rate of 90% or more (almost completely withered)) |
| COc1ccc(-c2oc3ccc(F)cc3c2-c2c(O)c(C)nn(C)c2=O)cc1 [Compound No. 9-020, 4-(5-fluoro-2-(4-methoxyphenyl)benzofuran-3-yl)-5-hydroxy-2,6-dimethylpyridazin-3(2H)-one] | 0 (Herbicidal rate of 5% or less (almost no effect)) | 5 (Herbicidal rate of 90% or more (almost completely withered)) | 5 (Herbicidal rate of 90% or more (almost completely withered)) | 5 (Herbicidal rate of 90% or more (almost completely withered)) | 3 (Herbicidal rate of 40% or more and less than 70%) | 4 (Herbicidal rate of 70% or more and less than 90%) | 5 (Herbicidal rate of 90% or more (almost completely withered)) | 5 (Herbicidal rate of 90% or more (almost completely withered)) | 2 (Herbicidal rate of 20% or more and less than 40%) | 5 (Herbicidal rate of 90% or more (almost completely withered)) | 5 (Herbicidal rate of 90% or more (almost completely withered)) | 1 (Herbicidal rate of 5% or more and less than 20%) | 5 (Herbicidal rate of 90% or more (almost completely withered)) | 2 (Herbicidal rate of 20% or more and less than 40%) | 4 (Herbicidal rate of 70% or more and less than 90%) | 4 (Herbicidal rate of 70% or more and less than 90%) | 4 (Herbicidal rate of 70% or more and less than 90%) |
